Data on one compound can be found in publication PMC10223552 (Pharmaceuticals, 2023).

Holding throughout (format): cell-based
In assay [1] the test system is BJ normal skin fibroblast. Briefly: MTT cytotoxicity test, BJ normal fibroblasts. Conditions: Homo sapiens, 48 h treatment. The protocol: The studies were conducted on two breast cancer cell lines—MCF-7 (ER+PR+/HER2-negative) and MDA-MB-231 (ER/PR/HER2-negative) and human normal fibroblast cell line BJ. The cell lines were obtained from American Type Culture Collection (ATCC, Manassas, VA, USA) and were cultured at 37 °C in the presence of 5% CO2 in the atmosphere. The culture media (Eagle’s Minimum Essential Medium for MCF-7 and BJ, Leibovitz’s L-15 Medium for MDA-MB-231, Corning, NY, USA), was supplemented with 10% fetal bovine serum. The cell’s morphology was examined under a Nikon Eclipse Ti inverted phase contrast microscope (Nikon, Tokyo, Japan). The authenticity of tested cell lines was verified by short tandem repeat (STR) genotyping in the Department of Forensic Medicine (Medical University of Lublin, Lublin, Poland).
Cell viability based on metabolic activity was evaluated with the MTT colorimetric test based on the ability of viable cells to cause the transformation of tetrazolium salts MTT (3-[4,5-dimethylthiazol-2-yl]-2,5)diphenyltetrazolium bromide) into purple formazan, by cellular dehydrogenases. The cells were seeded into 96-well plates at a concentration of 2 × 10^5 cells/mL. Once 70–80% confluency was reached, tested compounds were added: ADS10310 and ADS1017 in concentrations ranging from 1 to 250 µM or DMSO as the vehicle in control cultures for the next 48 h (max. DMSO concentration <0.5%). Doxorubicin was used for comparison as the standard chemotherapeutic agent used in breast cancer treatment. After 48 h of incubation cell cultures were supplemented with 20 µL of 5 mg/mL MTT (Thermofisher, Waltham, MA, USA) stock in PBS (Corning, NY, USA), and the incubation was continued for 4 h at 37 °C. […] The solution absorbency was measured at 570 nm, using a PowerWave™ xs microplate spectrophotometer (BioTek Instruments, Winooski, VT, USA). […] IC50 values were determined using the AAT Bioquest IC50 calculator (AAT Bioquest, Inc. Quest Graph™ EC50 Calculator. https://www.aatbio.com/tools/ec50-calculator) (accessed on 6 September 2022).
In general terms: Formazan colour is commonly taken as a measure of viable cells.

For assay [2], the system named is MDA-MB-231 breast cancer cells. The assay is described as follows: cells. Conditions: Homo sapiens, MDA-MB-231; 48 h treatment; read-out: MTT IC50 MDA-MB-231. The protocol:
(§1) The cell lines were obtained from American Type Culture Collection (ATCC, Manassas, VA, USA) and were cultured at 37 °C in the presence of 5% CO2 in the atmosphere. […] The cell’s morphology was examined under a Nikon Eclipse Ti inverted phase contrast microscope (Nikon, Tokyo, Japan). The authenticity of tested cell lines was verified by short tandem repeat (STR) genotyping in the Department of Forensic Medicine (Medical University of Lublin, Lublin, Poland).
(§2) Cell viability based on metabolic activity was evaluated with the MTT colorimetric test based on the ability of viable cells to cause the transformation of tetrazolium salts MTT (3-[4,5-dimethylthiazol-2-yl]-2,5)diphenyltetrazolium bromide) into purple formazan, by cellular dehydrogenases. The cells were seeded into 96-well plates at a concentration of 2 × 10^5 cells/mL. […] Doxorubicin was used for comparison as the standard chemotherapeutic agent used in breast cancer treatment. After 48 h of incubation cell cultures were supplemented with 20 µL of 5 mg/mL MTT (Thermofisher, Waltham, MA, USA) stock in PBS (Corning, NY, USA), and the incubation was continued for 4 h at 37 °C. Next, the medium with MTT was removed, and obtained crystals were dissolved in 200 µL of DMSO (dimethyl sulfoxide, Avantor, Gliwice, Poland). The solution absorbency was measured at 570 nm, using a PowerWave™ xs microplate spectrophotometer (BioTek Instruments, Winooski, VT, USA). The experiment was performed three times with three replicates for each concentration of tested compounds.

In assay [3] the test system is MCF-7 breast cancer cells. The assay is described as follows: cells. Conditions: Homo sapiens, MCF7; 48 h treatment; read-out: MTT IC50 MCF-7. As to the method: as §1, §2

By IC50 is commonly meant the concentration at which inhibition is half-maximal. Take `COc1cccc2c1C(=O)c1c(O)c3c(c(O)c1C2=O)C[C@@](O)(C(=O)CO)C[C@@H]3O[C@H]1C[C@H](N)[C@H](O)[C@H](C)O1` [Doxorubicin, reference compound]: the IC50 in assay [1] stood at 4870 nM; in assay [2] it was 1850 nM; in assay [3] it was 2120 nM.
